According to article PMC6001238, “Iterative Chemical Engineering of Vancomycin Leads to Novel Vancomycin Analogs With a High in Vitro Therapeutic Index” (Frontiers in Microbiology, 2018):
In brackets after ≈: the same amount, converted by molar mass. Where two headings read alike, the source gives them in different places.

Key:
E. faecalis VRE 6 = test: MIC, broth microdilution, vancomycin-resistant E. faecalis VRE 6 (VanA); type: cell-based, Enterococcus faecalis; conditions: for MIC: read-out: MIC
Procedure, shortened: (§1)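 CLSI broth microdilution; water and uninoculated-broth controls; one arm supplemented with vancomycin, final 10 μM, given with analogue or control antibiotic.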

E. faecalis VSE 1 = test: MIC, broth microdilution, vancomycin-sensitive E. faecalis (VSE 1); type: cell-based, Enterococcus faecalis; conditions: for MICvanc/MICi / MIC-fold improvement vs. vancomycin: ratio of MIC of vancomycin and MIC of analogue; for MIC: read-out: MIC; for MIC-fold improvement vs. vancomycin: VSE 1
Procedure, shortened: as §1

[1] = test system: human cervix carcinoma (HeLa) cells; test: Cytostatic activity, HeLa cell proliferation; type: cell-based; conditions: mean ± SD of three experiments; highest concentration tested 250 µM; 4 days; read-out: Toxicity (IC50) HeLa
Procedure, shortened: (§2)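 Test compounds, serially diluted, received an equal volume of cell suspension at 300,000–500,000 cells/mL. After 37°C incubation (2 days for L1210, 3 for CEM, 4 for HeLa), cells were enumerated by Coulter counting and 50%-inhibitory concentrations calculated per cell type.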

S. aureus VRSA = test: MIC, broth microdilution, vancomycin-resistant S. aureus (VRSA); type: cell-based, Staphylococcus aureus; conditions: for MIC: Staphylococcus aureus VRSA, read-out: MIC; for MIC-fold improvement vs. vancomycin: VRSA, ratio of MIC of vancomycin and MIC of analogue
Procedure, shortened: as §1

[2] = test system: L1210, CEM and HeLa cell lines; test: Cytostatic activity, average or summary over L1210, CEM and HeLa; type: cell-based
Procedure, shortened: as §2

S. aureus VISA/HIP5827 = test: MIC, broth microdilution, vancomycin-intermediate S. aureus VISA HIP5827; type: cell-based, Staphylococcus aureus; conditions: for MIC: Staphylococcus aureus VISA/HIP5827, read-out: MIC; for MIC-fold improvement vs. vancomycin: VISA/HIP5827, ratio of MIC of vancomycin and MIC of analogue
Procedure, shortened: as §1

E. coli XL-1 blue MRF' = test: MIC, broth microdilution, E. coli XL-1 blue MRF'; type: cell-based, Escherichia coli; conditions: E. coli XL-1 blue MRF'; for MICvanc/MICi: ratio of MIC of vancomycin and MIC of analogue
Procedure: (§3) The minimum inhibitory concentration (MIC) was determined using the broth microdilution method according to the antimicrobial susceptibility testing standards of the clinical and laboratory standards institute ([Clinical and Laboratory Standards Institute [CLSI], 2012]). Ultrapure water and non-inoculated broth were used as controls. In one case, a final concentration of 10 μM vancomycin was included with the vancomycin analog or control antibiotic.

E. faecalis VRE 53 = test: MIC, broth microdilution, vancomycin-resistant E. faecalis VRE 53 (VanA); type: cell-based, Enterococcus faecalis; conditions: for MICvanc/MICi / MIC-fold improvement vs. vancomycin: ratio of MIC of vancomycin and MIC of analogue; for MIC: read-out: MIC; for MIC-fold improvement vs. vancomycin: VRE 53
Procedure, shortened: as §1

[3] = test system: S. aureus VSSA (ATCC 6538); test: MIC, broth microdilution, vancomycin-sensitive S. aureus (VSSA/MSSA, ATCC 6538); type: cell-based, Staphylococcus aureus; conditions: for MIC: Staphylococcus aureus VSSA, read-out: MIC
Procedure, shortened: as §1

[4] = test system: human T-lymphocyte (CEM) cells; test: Cytostatic activity, CEM cell proliferation; type: cell-based; conditions: mean ± SD of three experiments; highest concentration tested 250 µM; 3 days; read-out: Toxicity (IC50) CEM
Procedure, shortened: as §2

B. subtilis PSB3 = test: MIC, broth microdilution, B. subtilis PSB3; type: cell-based, Bacillus subtilis; conditions: for MICvanc/MICi: ratio of MIC of vancomycin and MIC of analogue
Procedure: as §3

MRSA KS89 = test: MIC, broth microdilution, MRSA KS89; type: cell-based, Staphylococcus aureus; conditions: for MIC-fold improvement vs. vancomycin: MRSA KS8, ratio of MIC of vancomycin and MIC of analogue; for MIC: Staphylococcus aureus MRSA KS8, read-out: MIC
Procedure, shortened: as §1

[5] = test system: Murine leukemia (L1210) cells; test: Cytostatic activity, L1210 cell proliferation; type: cell-based; conditions: mean ± SD of three experiments; highest concentration tested 250 µM; 2 days; read-out: Toxicity (IC50) L1210
Procedure, shortened: as §2

E. faecalis VRE 37 = test: MIC, broth microdilution, vancomycin-resistant E. faecalis VRE 37 (VanA); type: cell-based, Enterococcus faecalis; conditions: for MIC: Enterococcus faecalis VRE 37 (vancomycin-resistant), read-out: MIC; for MIC-fold improvement vs. vancomycin: VRE 37, ratio of MIC of vancomycin and MIC of analogue
Procedure, shortened: as §1

E. faecalis VRE 29 = test: MIC, broth microdilution, vancomycin-resistant E. faecalis VRE 29 (VanA); type: cell-based, Enterococcus faecalis; conditions: for MIC: Enterococcus faecalis VRE 29 (vancomycin-resistant), read-out: MIC; for MIC-fold improvement vs. vancomycin: VRE 29, ratio of MIC of vancomycin and MIC of analogue
Procedure, shortened: as §1

MRSA KS6 = test: MIC, broth microdilution, MRSA KS6; type: cell-based, Staphylococcus aureus; conditions: for MIC-fold improvement vs. vancomycin: MRSA KS6, ratio of MIC of vancomycin and MIC of analogue; for MIC: Staphylococcus aureus MRSA KS6, read-out: MIC
Procedure, shortened: as §1

MRSA KS1 = test: MIC, broth microdilution, MRSA KS1; type: cell-based, Staphylococcus aureus; conditions: for MIC: Staphylococcus aureus MRSA KS1, read-out: MIC
Procedure, shortened: as §1

MRSA KS2 = test: MIC, broth microdilution, MRSA KS2; type: cell-based, Staphylococcus aureus; conditions: for MIC: Staphylococcus aureus MRSA KS2, read-out: MIC
Procedure, shortened: as §1

[6] = E. faecalis VRE 6, ratio of MIC of vancomycin and MIC of analogue
[7] = Enterococcus faecalis VRE 6 (vancomycin-resistant)
[8] = Enterococcus faecalis VSE 1 (vancomycin-sensitive)
[9] = average of L1210, CEM and HeLa, read-out: Toxicity (IC50) Average
[10] = Enterococcus faecalis VRE 53 (vancomycin-resistant)

SMILES	MICvanc/MICi (E. faecalis VRE 6; [6])	MIC (E. faecalis VRE 6; E. faecalis VRE 6)	MIC (E. faecalis VRE 6; [7])	MICvanc/MICi (E. faecalis VSE 1; E. faecalis VSE 1)	MIC (E. faecalis VSE 1; E. faecalis VSE 1)	MIC (E. faecalis VSE 1; [8])	MIC-fold improvement vs. vancomycin (E. faecalis VSE 1)	IC50 [1]	MIC (S. aureus VRSA)	MIC-fold improvement vs. vancomycin (S. aureus VRSA)	IC50 [2, 9]	MIC (S. aureus VISA/HIP5827)	MIC-fold improvement vs. vancomycin (S. aureus VISA/HIP5827)	MIC (E. coli XL-1 blue MRF')	MICvanc/MICi (E. coli XL-1 blue MRF')	MICvanc/MICi (E. faecalis VRE 53; E. faecalis VRE 53)	MIC (E. faecalis VRE 53; E. faecalis VRE 53)	MIC (E. faecalis VRE 53; [10])	MIC-fold improvement vs. vancomycin (E. faecalis VRE 53)	MIC [3]	other results
C#Cc1ccc(C=Cc2ccc(NC(=O)CNC(=O)C3NC(=O)C4NC(=O)C(NC(=O)C5NC(=O)C(CC(N)=O)NC(=O)C(NC(=O)C(CC(C)C)NC)C(O)c6ccc(c(Cl)c6)Oc6cc5cc(c6OC5OC(CO)C(O)C(O)C5OC5CC(C)(N)C(O)C(C)O5)Oc5ccc(cc5Cl)C4O)c4ccc(O)c(c4)-c4c(O)cc(O)cc43)cc2)cc1 (stereo not shown) [Vanc-R]	64	3.13 µM (≈ 5.34 µg/mL)	3.13 µM (≈ 5.34 µg/mL)	8	0.20 µM (≈ 0.342 µg/mL)	0.19 µM (≈ 0.324 µg/mL)	8	15 ± 1 µM	1.56 µM (≈ 2.66 µg/mL)	64	7 µM	0.78 µM (≈ 1.33 µg/mL)	8	100 µM (≈ 171 µg/mL)	1	64	6.25 µM (≈ 10.7 µg/mL)	6.25 µM (≈ 10.7 µg/mL)	64	0.10 µM (≈ 0.171 µg/mL)	MIC-fold improvement vs. vancomycin ([3]; VSSA, ratio of MIC of vancomycin and MIC of analogue): 8; IC50 [4]: 1.4 ± 0.6 µM; MIC (B. subtilis PSB3): 0.78 µM (≈ 1.33 µg/mL); MICvanc/MICi (B. subtilis PSB3): 0.5; MIC-fold improvement vs. vancomycin (MRSA KS89): 2; MIC (MRSA KS89): 0.39 µM (≈ 0.666 µg/mL); IC50 [5]: 5.7 ± 0.7 µM; MIC (E. faecalis VRE 37): 12.5 µM (≈ 21.3 µg/mL); MIC-fold improvement vs. vancomycin (E. faecalis VRE 37): 64; MIC (E. faecalis VRE 29): 1.56 µM (≈ 2.66 µg/mL); MIC-fold improvement vs. vancomycin (E. faecalis VRE 29): 256; MIC-fold improvement vs. vancomycin (MRSA KS6): 2; MIC (MRSA KS6): 0.39 µM (≈ 0.666 µg/mL); MIC-fold improvement vs. vancomycin (MRSA KS1; MRSA KS1, ratio of MIC of vancomycin and MIC of analogue): 1; MIC (MRSA KS1): 0.78 µM (≈ 1.33 µg/mL); MIC-fold improvement vs. vancomycin (MRSA KS2; MRSA KS2, ratio of MIC of vancomycin and MIC of analogue): 2; MIC (MRSA KS2): 0.39 µM (≈ 0.666 µg/mL)
C#CCCC(=O)NCCCNC(=O)C1NC(=O)C2NC(=O)C(NC(=O)C3NC(=O)C(CC(N)=O)NC(=O)C(NC(=O)C(CC(C)C)NC)C(O)c4ccc(c(Cl)c4)Oc4cc3cc(c4OC3OC(CO)C(O)C(O)C3OC3CC(C)(N)C(O)C(C)O3)Oc3ccc(cc3Cl)C2O)c2ccc(O)c(c2)-c2c(O)cc(O)cc21 (stereo not shown) [Vanc-B]	4	50 µM (≈ 79.3 µg/mL)	50 µM (≈ 79.3 µg/mL)	2	0.78 µM (≈ 1.24 µg/mL)	0.78 µM (≈ 1.24 µg/mL)	2	> 250 µM	12.5 µM (≈ 19.8 µg/mL)	8	> 250 µM	3.13 µM (≈ 4.96 µg/mL)	2	25 µM (≈ 39.6 µg/mL)	4	32	12.5 µM (≈ 19.8 µg/mL)	12.5 µM (≈ 19.8 µg/mL)	32	0.78 µM (≈ 1.24 µg/mL)	MIC-fold improvement vs. vancomycin (E. faecalis VRE 6; VRE 6, ratio of MIC of vancomycin and MIC of analogue): 4; IC50 ([2]; summary over the three cell lines, read-out: IC50 (L1210, CEM, HeLa), depending on the cell line used): > 250 µM; IC50 [4]: > 250 µM; MIC (B. subtilis PSB3): 0.20 µM (≈ 0.317 µg/mL); MICvanc/MICi (B. subtilis PSB3): 2; MIC-fold improvement vs. vancomycin (MRSA KS89): 1; MIC (MRSA KS89): 1.56 µM (≈ 2.47 µg/mL); IC50 [5]: > 250 µM; MIC (E. faecalis VRE 37): 100 µM (≈ 159 µg/mL); MIC-fold improvement vs. vancomycin (E. faecalis VRE 37): 8; MIC (E. faecalis VRE 29): 100 µM (≈ 159 µg/mL); MIC-fold improvement vs. vancomycin (E. faecalis VRE 29): 4; MIC-fold improvement vs. vancomycin (MRSA KS6): 0.5; MIC (MRSA KS6): 1.56 µM (≈ 2.47 µg/mL); MIC (MRSA KS1): 0.78 µM (≈ 1.24 µg/mL); MIC (MRSA KS2): 0.78 µM (≈ 1.24 µg/mL)
